Test results: US6963769B1, “Method for enhancing contrast produced by MRI” (The United States of America as represented by the …, priority 1999, dated 2005)
Values joined by “and” are separate entries in the source; they are usually repeats but may differ in a detail not shown here. Equal entries are not always repeated. Structures can show the parent of a compound that is named as a salt. Where two headings read alike, the source gives them in different places.

Legend:
[1] = in vitro CEDST spectra of candidate contrast agents (proton chemical exchange with water), 7T; conditions: for chemical shift of proton chemical exchange site (ΔωcA): relative to water
Protocol: Test compounds were dissolved in HPLC grade water at concentrations denoted in Table 1 with inorganic phosphate buffers to maintain pH.
CEDST spectra were acquired at 7T using a Bruker AC-300 wide bore spectrometer at 37° C. The observation frequency was set on the water peak and the decoupler was used to provide off-resonance saturation. Studies were conducted using a steady-state with irradiation (15 seconds) over a range of irradiation frequencies ±8.00 ppm from water. CEDST spectra were plotted in the form of water amplitude (Ms) versus irradiation frequency.
Several chemical reagents, including 5,6-dihydrouracil, 5-hydroxy-tryptophan, hydantoin, parabanic acid, sugars, amino acids, nucleosides, and imidazoles (Table 1), were tested for their ability to undergo proton chemical exchange detected using CEDST. Chemical shifts are reported relative to the water resonance. The spectral dependence of CEDST was determined by sweeping the irradiation frequency and while monitoring the water resonance.
Saturation depends on the B1 power and the irradiation offset frequency. The appropriate power was determined by increasing power until no further decrease in Ms was observed. […] Spin lattice relaxation time constants (T1) were obtained with inversion-recovery experiments. The range of inversion delays (Ti) was between 0.001 and 30 seconds, with a 30 second pre-delay.

[2] = cited from earlier work
[3] = pKa of the proton exchange site
[4] = MR images of phantoms, 4T GRE sequence with off-resonance saturation at ±850 Hz (5.00 ppm), difference image; format: physicochemical
Protocol: The results in FIG. 3 confirm those of FIG. 2. MR images of phantoms were collected on a custom-designed 4T system operating at room temperature (about 20° C.). The imaging sequence itself is a GRE (Gradient Recalled Echo) imaging sequence with an off-resonance saturation pulse centered at an offset of 5.00 ppm (850 Hz for the field at 4 Tesla). The other parameters used were: 90 degree flip angle used, TE (Echo time)=9 msec, TR (Repetition time)=1.2 sec, 16 Sinc pulses, followed by crusher gradients (which completely dephased the transverse magnetization). Four test tubes are shown in FIG. 3, with each containing a different solution. Three contained 62.5 mM barbituric acid at pH=7.4, 7.0, or 6.5. The fourth test tube contained 500 mM NH4Cl at pH=5.0. These test tubes were placed inside the 4T NMR imaging system, irradiated at ±850 Hz, and both control and experimental images were collected as described previously. FIG. 3 is the difference image generated by subtracting the experimental image from the control image. […] Therefore, the signals in these phantoms were generated due to proton chemical exchange with barbituric acid. The brightest signal in these phantoms (where the control and experimental image difference was the greatest) was generated by barbituric acid at pH=7.4.

[5] = cited from earlier work; remark: listed apart in the source
rabbit bladder = test: in vivo CEDST MRI of rabbit bladder after intravenous barbituric acid, 4 Tesla; parameters: species or system New Zealand White rabbit
Protocol: This example describes the in vivo analysis of barbituric acid in a rabbit bladder. A male New Zealand White rabbit (1.5 kg, Hazelton Research Products, Denver Pa.) was initially anaesthetized with an intramuscular injection of a mixture of ketamine/acepromazaine (180 mg/2 mg), intubated and placed on a Siemens 900c ventilator (Siemens Medical Systems, Danvers Mass.). A catheter was placed in the marginal ear vein for infusion of intravenous fluids to maintain volume status. This catheter also was used to administer three doses of 50 mL barbituric acid solution (125 mM, pH=7.4, 20 mM phosphate buffer). Anesthesia was maintained with 2% isoflurane until sacrifice with 6 meq of KCl IV.
The rabbit was analyzed using a 4 Tesla magnet at the settings described in Example 1. The images were obtained after irradiation at the ppm offset characteristic of barbituric acid (5.25). […] The bladder and surrounding muscles are visible. This control image is collected to correct for the broad background of saturation transfer from macromolecules (i.e. proteins, lipids) located underneath the water signal. Guivel-Scharen et al., J. Magn. Reson., 133:36-45 (1998), herein incorporated by reference. […] This will irradiate the barbituric acid signal.
Following sacrifice of the rabbit, urine was collected and evaluated on the 7T system at 37° C. as described in Example 1. […] FIGS. 12-14 also confirm the identity of the metabolite imaged during the in vivo analysis.

[6] = imidazole derivatives, ring protons (—NH), concentration not given, 37° C., 20 mM phosphate buffer
[7] = 62.5 mM, 37° C., 20 mM phosphate buffer, 10.88 × 10^−7T, at given ppm and pH
[8] = 62.5 mM, 37° C., 20 mM phosphate buffer, exchange site
[9] = sugars 250 mM, —OH protons, single pH 7.0, 37° C., 20 mM phosphate buffer
[10] = sugars 250 mM, —OH protons, single pH 7.0, 37° C., 20 mM phosphate buffer, saturation power 10.88 × 10^−7T
[11] = 125 mM, guanidinium protons, single pH 7.0, 37° C., 20 mM phosphate buffer, 10.88 × 10^−7T
[12] = 125 mM, 37° C., 20 mM phosphate buffer, 10.88 × 10^−7T, at given ppm and pH
[13] = 125 mM, 37° C., 20 mM phosphate buffer, exchange site
[14] = 35 mM, —NH2, 37° C., 20 mM phosphate buffer, 10.88 × 10^−7T, at listed pH
[15] = 125 mM, 3-NH, 37° C., 2 mM phosphate buffer, 10.88 × 10^−7T, at listed pH

For `O=C1NCCN1` [2-Imidazolidone], the “Mo − Ms (%)” value [1, 6] was 30.4% and 29.8%, the Ms/Mo [1, 6] was 0.68 and the “ppm (relative to the resonant frequency of water)” value [1, 6] was 1.167 ppm.

For `O=C1CC(=O)NC(=S)N1` [2-Thio-Barbituric Acid], the “Mo − Ms (%)” value [1, 7] was 35.3%, the Ms/Mo [1, 7] was 0.65 and the “ppm (relative to the resonant frequency of water)” value [1, 8] was 6.333 ppm. For the same compound, the “chemical shift of proton chemical exchange site (ΔωcA)” value [1] was 6.33 ppm.

In the case of `O=C1CCNC(=O)N1` [5,6 Dihydrouracil], the “pKa of the 5.00 ppm site” value [2] is given as ~9.5, the “Mo − Ms (%)” value [1, 7] is given as 22.2% and the Ms/Mo [1, 7] is given as 0.78 and 0.77. The “ppm (relative to the resonant frequency of water)” value [1, 8] was 5.000 ppm and 2.667 ppm, the “chemical shift of proton chemical exchange site (ΔωcA)” value ([1]; running text, listed as 5,6-dihydro-uracil) was 5.00 ppm and 2.67 ppm and the “chemical shift of proton chemical exchange site (ΔωcA)” value ([1]; running text, listed as 5,6-dihydrouracil) was 5.0 ppm and 2.67 ppm.

In the case of `N[C@@H](Cc1c[nH]c2ccc(O)cc12)C(=O)O` [5-Hydroxy-Tryptophan], the Ms/Mo [1, 7] is reported as 0.57 and 0.79, the “ppm (relative to the resonant frequency of water)” value [1, 8] is reported as 2.833 ppm and 5.333 ppm and the “chemical shift of proton chemical exchange site (ΔωcA)” value [1] is reported as 5.33 ppm and 2.83 ppm. The “chemical shift of proton chemical exchange site (ΔωcA)” value ([1]; listed as 5-HT) was 5.33 ppm.

With `O=C(O)C1CCN1` (stereo not shown) [Azetidine-2-Carboxylic Acid] the “Mo − Ms (%)” value [1, 7] was 25.5%, the Ms/Mo [1, 7] was 0.74 and the “ppm (relative to the resonant frequency of water)” value [1, 8] was 3.50 ppm.

For `CCC1(CC)C(=O)NC(=O)NC1=O` [Barbital (5,5-Diethyl-Barbituric Acid), 5,5-Diethyl-Barbituric Acid], the pKa [3] was 7, the “Mo − Ms (%)” value [1, 7] was 14.2% and the Ms/Mo [1, 7] was 0.82. The “ppm (relative to the resonant frequency of water)” value [1, 8] was 5.000 ppm.

In the case of `O=C1CC(=O)NC(=O)N1` [Barbituric Acid], the “enhancement in difference image of phantoms” value ([4]; 4T, about 20° C., irradiated at ±850 Hz, barbituric acid 62.5 mM pH 7.4, 7.0, 6.5, NH4Cl 500 mM pH 5.0) is given as “enhanced”, the “Oral dosage toxicity, LD50” value [5] is given as > 5000 mg/kg and the pKa [3] is given as 12. For the same compound, the “physiological response to the injection” value (rabbit bladder; intravenous, 125 mM solution) was “physiologically unaltered (i.e. no change in blood pressure)”, the “time to reach the kidneys” value (rabbit bladder; intravenous, 50 mL doses of 125 mM solution, pH 7.4) was ≤ 20 min and the “location of signal remaining in the in vivo difference image” value (rabbit bladder; irradiation ±900 Hz (5.25 ppm/4T)) was “is in the bladder, not in the muscle or other tissues”. The “Mo − Ms (%)” value [1, 7] was 32.5%, the Ms/Mo [1, 7] was 0.68 and the “ppm (relative to the resonant frequency of water)” value [1, 8] was 5.000 ppm. For the same compound, the “chemical shift of proton chemical exchange site (ΔωcA)” value [1] was 5.00 ppm.

For `O=C(CO)[C@@H](O)[C@H](O)[C@H](O)CO` [Fructose], the “ppm (relative to the resonant frequency of water)” value [1, 9] was 1.333 ppm, the “Mo − Ms (%)” value [1, 10] was 9.3% and the Ms/Mo [1, 10] was 0.88.

In the case of `O=C[C@H](O)[C@@H](O)[C@@H](O)[C@H](O)CO` [Galactose], the “ppm (relative to the resonant frequency of water)” value [1, 9] is reported as 1.167 ppm, the “Mo − Ms (%)” value [1, 10] is reported as 10.3% and the Ms/Mo [1, 10] is reported as 0.85.

In the case of `N=C(N)N` [Guanidine HCl], the “ppm (relative to the resonant frequency of water)” value ([1]; 125 mM, guanidinium protons, single pH 7.0, 37° C., 20 mM phosphate buffer) is reported as 2.000 ppm, the “Mo − Ms (%)” value [1, 11] is reported as 60.0% and the Ms/Mo [1, 11] is reported as 0.38.

In the case of `O=C1CNC(=O)N1` [Hydantoin], the “Mo − Ms (%)” value [1, 7] is reported as 18.7% and 21.3% and the Ms/Mo [1, 7] is reported as 0.81 and 0.78.

With `C[C@H](N)C(=O)O` [L-Alanine] the “Mo − Ms (%)” value [1, 12] was 67.4%, the Ms/Mo [1, 12] was 0.36 and the “ppm (relative to the resonant frequency of water)” value [1, 13] was 3.000 ppm.

With `NC(=O)CC[C@H](N)C(=O)O` [L-Glutamine] the “Mo − Ms (%)” value [1, 12] was 27.6%, the Ms/Mo [1, 12] was 0.70 and the “ppm (relative to the resonant frequency of water)” value [1, 13] was 2.000 ppm.

With `NCCCC[C@H](N)C(=O)O` [L-Lysine] the “Mo − Ms (%)” value [1, 12] was 66.2%, the Ms/Mo [1, 12] was 0.34 and the “ppm (relative to the resonant frequency of water)” value [1, 13] was 3.000 ppm.

With `N[C@@H](Cc1c[nH]c2ccccc12)C(=O)O` [L-Tryptophan] the “ppm (relative to the resonant frequency of water)” value ([1]; 35 mM, —NH2, 37° C., 20 mM phosphate buffer) was 2.000 ppm, the “Mo − Ms (%)” value [1, 14] was 12.2% and the Ms/Mo [1, 14] was 0.89.

In the case of `OC[C@@H](O)[C@@H](O)[C@H](O)[C@H](O)CO` [Mannitol], the “ppm (relative to the resonant frequency of water)” value [1, 9] is reported as 1.000 ppm, the “Mo − Ms (%)” value [1, 10] is reported as 9.0% and the Ms/Mo [1, 10] is reported as 0.89.

In the case of `Cl.N` [NH4Cl, reference compound], the “enhancement in difference image of phantoms” value [4] is reported as “neither the surrounding water nor the NH4Cl control were significantly affected”.

For `O=C1NC(=O)C(=O)N1` [Parabanic Acid], the “Mo − Ms (%)” value [1, 7] was 20.5% and 25.4% and 22.5% and the Ms/Mo [1, 7] was 0.79 and 0.74 and 0.77.

For `O=C(O)C1CCCCN1` (stereo not shown) [Pipecolinic Acid], the “Mo − Ms (%)” value [1, 7] was 19.3%, the Ms/Mo [1, 7] was 0.81 and the “ppm (relative to the resonant frequency of water)” value [1, 8] was 3.33 ppm.

In the case of `OC[C@@H](O)[C@@H](O)[C@H](O)[C@@H](O)CO` [Sorbitol], the “ppm (relative to the resonant frequency of water)” value [1, 9] is reported as 1.000 ppm, the “Mo − Ms (%)” value [1, 10] is reported as 7.3% and the Ms/Mo [1, 10] is reported as 0.88.

For `OC[C@H]1O[C@@](CO)(O[C@H]2O[C@H](CO)[C@@H](O)[C@H](O)[C@H]2O)[C@@H](O)[C@@H]1O` [Sucrose], the “ppm (relative to the resonant frequency of water)” value [1, 9] was 1.333 ppm, the “Mo − Ms (%)” value [1, 10] was 10.2% and the Ms/Mo [1, 10] was 0.86.

With `Cc1cn([C@H]2C[C@H](O)[C@@H](CO)O2)c(=O)[nH]c1=O` [Thymidine] the “ppm (relative to the resonant frequency of water)” value ([1]; 125 mM, 3-NH, 37° C., 2 mM phosphate buffer) was 6.333 ppm, the “Mo − Ms (%)” value [1, 15] was 34.8% and the Ms/Mo [1, 15] was 0.65.

Work on `O=c1ccn([C@@H]2O[C@H](CO)[C@@H](O)[C@H]2O)c(=O)[nH]1` [Uridine] yielded a Ms/Mo [1, 15] of 0.65.
